Experimental data reported in PubChem BioAssay AID651630 (Sanford-Burnham Center for Chemical Genomics, 2012).
Activity calls are given as the source filed them.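 How the source made its calls: active means lipid-stain IC50 at or below a set limit, with nuclear-stain toxicity IC50 at least five times higher; inactive means the rest.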

Tests used:
TAG = TAG lipid buildup inhibition with viability readout – cell-based, panel, Nile Red and DAPI fluorescence, H9c2, dose response (AID 651630); conditions: H9c2 cells, Nile Red TAG fluorescence, oleic acid;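 further: cells exposed to compound overnight before fixation and staining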
DAPI = assay: as above; conditions: H9c2 cells, DAPI nuclear fluorescence (cytotoxicity counter-readout), oleic acid

Structure (SMILES)	IC50 (TAG; mean of runs)	IC50 (TAG; run 1) [µM]	IC50 (TAG; run 2) [µM]	IC50 cytotoxicity (DAPI nuclear signal decrease) (DAPI; mean of runs)	IC50 cytotoxicity (DAPI nuclear signal decrease) (DAPI; run 1) [µM]	IC50 cytotoxicity (DAPI nuclear signal decrease) (DAPI; run 2) [µM]
O=[N+]([O-])c1ccc(Nc2nc(N3CCOCC3)nc(N3CCOCC3)n2)cc1	21.4 µM (inactive)	24.2	18.6	> 25 µM (inactive)	> 25	> 25
O=C(OCc1ccc(Br)cc1)c1cc([N+](=O)[O-])ccc1N1CCOCC1	> 25 µM (inactive)	> 25	> 25	> 25 µM (inactive)	> 25	> 25
Cc1cccc2sc(NC(=O)C3CCCN(S(=O)(=O)c4cccc5nonc45)C3)nc12 (stereo not drawn)	10.5 µM	12.2	8.72	> 25 µM (inactive)	> 25	> 25
CCOc1cc(CNC(C)(C)C)ccc1OCC(=O)Nc1cccc(C(F)(F)F)c1	16.3 µM (inactive)	15.5	17.2	> 25 µM (inactive)	> 25	> 25
CSc1ccc(C2=C/C(=C3/SC(=S)NC3=O)c3ccccc3O2)cc1	14.6 µM	11.8	17.3	> 25 µM (inactive)	> 25	> 25
Cc1ccc(Cn2c(C(C)Nc3nc(-c4ccc(Cl)c([N+](=O)[O-])c4)cs3)nc3cc(C(F)(F)F)ccc32)cc1 (stereo not drawn)	8.37 µM	6.7	10	–	> 25	7.97
Cc1ccc(NC(=O)c2nc[nH]c2C(=O)NCCCCCCNC(=O)c2[nH]cnc2C(=O)Nc2ccc(C)cc2)cc1	9.03 µM	8.97	9.09	> 25 µM (inactive)	> 25	> 25
Cc1ccc(NC(=O)c2cc([N+](=O)[O-])ccc2NCc2cccnc2)cc1Cl	14 µM	10.5	17.6	> 25 µM (inactive)	> 25	> 25
Cc1nn2c(N3CCCC3)cc(C(C)C)nc2c1-c1ccccc1	> 25 µM (inactive)	> 25	> 25	> 25 µM (inactive)	> 25	> 25
CC1CC2(C)Oc3ccccc3CC2C(C)C1CNCCCN(C)C (stereo not drawn)	> 25 µM (inactive)	> 25	> 25	18.9 µM (inactive)	18.4	19.5
CCOc1ccccc1NC(=O)c1cccc(NC(=O)c2ccco2)c1	–	> 25	9.58	> 25 µM (inactive)	> 25	> 25
O=C(CCl)Nc1cc2[nH]c(=O)[nH]c2cc1Br	9.37 µM	5.97	12.8	15 µM (inactive)	11.7	18.3
O=C(Nc1cccc(-c2csc(Nc3ccc(Cl)cc3)n2)c1)c1cc([N+](=O)[O-])cc(C(F)(F)F)c1	13.9 µM	13.4	14.4	> 25 µM (inactive)	> 25	> 25
CCOC(=O)c1[nH]c(C)c(C(=O)Nc2ccccc2C)c1C	> 25 µM (inactive)	> 25	> 25	> 25 µM (inactive)	> 25	> 25
CCCCCCCCn1c(N2CCN(c3cccc(Cl)c3)CC2)nc2c1c(=O)[nH]c(=O)n2C	> 25 µM (inactive)	> 25	> 25	> 25 µM (inactive)	> 25	> 25
COc1cccc(NC(=O)N2CCc3nc(Nc4ccc(C(C)C)cc4)ncc3C2)c1	2.73 µM	2.94	2.52	–	> 25	> 25
Cc1cc(NC(=O)CSc2nc(-c3cccs3)nc3ccccc23)no1	17.5 µM (inactive)	14.4	20.6	> 25 µM (inactive)	> 25	> 25

Structure (SMILES)	IC50 (TAG; mean of runs)	IC50 (TAG; run 1) [µM]	IC50 (TAG; run 2) [µM]	IC50 cytotoxicity (DAPI nuclear signal decrease) (DAPI; mean of runs)	IC50 cytotoxicity (DAPI nuclear signal decrease) (DAPI; run 1) [µM]	IC50 cytotoxicity (DAPI nuclear signal decrease) (DAPI; run 2) [µM]
COc1cc(C#Cc2c(-c3cncn3C)n(C)c3ccc(-c4cc(OC)c(OC)c(OC)c4)cc23)cc(OC)c1	> 25 µM (inactive)	> 25	> 25	> 25 µM (inactive)	> 25	> 25
COC(=O)C1=C(C)N(Cc2ccccc2)C(=NCc2cc(OC)c(OC)c(OC)c2)N[C@H]1c1ccc(Br)cc1	> 25 µM (inactive)	> 25	> 25	> 25 µM (inactive)	> 25	> 25
CCOc1ccccc1NC(=O)CCC(=O)Nc1ccccc1OCC	> 25 µM (inactive)	> 25	> 25	> 25 µM (inactive)	> 25	> 25
OCCCn1c(C2CCCN2c2nc(-c3ccc(F)cc3)cs2)nc2cc(C(F)(F)F)ccc21 (stereo not drawn)	14 µM	14.1	13.9	> 25 µM (inactive)	> 25	> 25
Cc1cc(NC(=O)CC2CCCC2)n(-c2nc3ccccc3[nH]2)n1	–	> 25	11.2	> 25 µM (inactive)	> 25	> 25
CCCSc1ccc2nc(NC(=O)OC)[nH]c2c1	> 25 µM (inactive)	> 25	> 25	> 25 µM (inactive)	> 25	> 25
Cc1cc(N/N=C/c2ccc(F)cc2)nc(-n2nc(C)cc2C)n1	> 25 µM (inactive)	> 25	> 25	> 25 µM (inactive)	> 25	> 25
COC(=O)Nc1nc2ccc(SC(C)C)cc2[nH]1	–	> 25	13.9	> 25 µM (inactive)	> 25	> 25
CC(=O)c1cccc(-c2ccnc3c2CC(C(=O)NCc2ccco2)O3)c1 (stereo not drawn)	> 25 µM (inactive)	> 25	> 25	> 25 µM (inactive)	> 25	> 25
CNC(=O)c1ccc(-c2sc3nc(N4CCOCC4)c4c(c3c2N)CC(C)(C)OC4)o1	9.7 µM	13.1	6.33	> 25 µM (inactive)	> 25	> 25
O=C(Nc1ccc(-c2csc(Nc3cccc(C(F)(F)F)c3)n2)cc1)c1cccc(C(F)(F)F)c1	6.44 µM	5.94	6.94	> 25 µM (inactive)	> 25	> 25
CCCCCc1cc(=O)oc2c(C(CCN3CCN(c4ccccc4)CC3)c3ccc(N(C)C)cc3)c(OC)cc(OC)c12 (stereo not drawn)	12.2 µM	11.2	13.2	> 25 µM (inactive)	> 25	> 25
CNCCCN1c2ccccc2CCc2ccccc21	> 25 µM (inactive)	> 25	> 25	> 25 µM (inactive)	> 25	> 25
CCc1cc2c3c(c1)C1(C(=O)N3C(C)(C)C=C2C)C(C#N)=C(N)Oc2[nH]c(=O)[nH]c(=O)c21 (stereo not drawn)	> 25 µM (inactive)	> 25	> 25	> 25 µM (inactive)	> 25	> 25
CC(C)(Oc1ccc(Cl)cc1)C(=O)Nc1ccc2oc(-c3ccncc3)nc2c1	> 25 µM (inactive)	> 25	> 25	> 25 µM (inactive)	> 25	> 25
Oc1ccc(C[C@H]2CNC(=S)N2CC2CCCN2C[C@H](Cc2ccc(O)cc2)N2C[C@H](Cc3ccc(O)cc3)N(CC3CCCCCC3)C2=S)cc1 (stereo partly drawn)	8.6 µM	7.31	9.89	> 25 µM (inactive)	> 25	> 25
